From ChEMBL document CHEMBL5154857, “Discovery of potential novel CRBN modulators by virtual screening and bioassay” (Eur J Med Chem, 2022)

What was measured:
Format in all cases: functional
MCF7 = test: Antitumor activity against human MCF7 cells assessed as inhibition of cell growth at 40 uM incubated for 48 hrs by MTS assay relative to control
A549 [1] = test: Antitumor activity against human A549 cells assessed as inhibition of cell growth at 40 uM incubated for 48 hrs by MTS assay relative to control
HL-60 = test: Antitumor activity against human HL-60 cells assessed as inhibition of cell growth at 40 uM incubated for 48 hrs by MTS assay relative to control
SMMC-7721 = test: Antitumor activity against human SMMC-7721 cells assessed as inhibition of cell growth at 40 uM incubated for 48 hrs by MTS assay relative to control
SW480 = test: Antitumor activity against human SW480 cells assessed as inhibition of cell growth at 40 uM incubated for 48 hrs by MTS assay relative to control
A549 [2] = test: Induction of apoptosis in human A549 cells assessed as early apoptotic cells at 1 uM measured after 24 hrs by Annexin V-PE/7-AAD dual staining based flow cytometry (reference value: 4.04 %)
A549 [3] = test: Induction of apoptosis in human A549 cells assessed as live cells at 1 uM measured after 24 hrs by Annexin V-PE/7-AAD dual staining based flow cytometry (reference value: 93.3 %)
A549 [4] = test: Induction of apoptosis in human A549 cells assessed as necrotic cells at 1 uM measured after 24 hrs by Annexin V-PE/7-AAD dual staining based flow cytometry (reference value: 0.150 %)
A549 [5] = test: Induction of apoptosis in human A549 cells assessed as late apoptotic cells at 1 uM measured after 24 hrs by Annexin V-PE/7-AAD dual staining based flow cytometry (reference value: […])

**Q.** How did the inhibition at 40 µM (MCF7) turn out when `O=C(NCC1(N2CCOCC2)CCCCC1)c1ccc2c(c1)C(=O)N(c1ccc(F)cc1)C2=O` was run?
**A.** 13.6%

**Q.** What about the inhibition at 40 µM (A549 [1]) of the same compound?
**A.** 9.68%

**Q.** And the inhibition at 40 µM (HL-60)?
**A.** 11.5%

**Q.** And the inhibition at 40 µM (SMMC-7721)?
**A.** 16.4%

**Q.** What about the inhibition at 40 µM (SW480) of the same compound?
**A.** 8.82%

**Q.** For `N#CCCCN1C(=O)C(O)(CC(=O)c2ccc3c(c2)OCCO3)c2ccccc21` (centres undefined), which inhibition at 40 µM (MCF7) is on record?
**A.** -0.19%

**Q.** And the inhibition at 40 µM (A549 [1])?
**A.** 7.13%

**Q.** What about the inhibition at 40 µM (HL-60) of the same compound?
**A.** -21.4%

**Q.** What about the inhibition at 40 µM (SMMC-7721) of the same compound?
**A.** 11.5%

**Q.** And the inhibition at 40 µM (SW480)?
**A.** 13.5%

**Q.** What does the source list for `NC(=O)CN1C(=O)C(O)(CC(=O)c2ccc3c(c2)OCO3)c2ccccc21` (centres undefined)?
**A.** inhibition at 40 µM (MCF7): 6.11%; inhibition at 40 µM (A549 [1]): 11.2%; inhibition at 40 µM (HL-60): 21.6%; inhibition at 40 µM (SMMC-7721): 11.6%; inhibition at 40 µM (SW480): 14.8%

**Q.** Which inhibition at 40 µM (MCF7) does the source give for `O=C(CC1(O)C(=O)N(CN2CCOCC2)c2ccccc21)c1ccc(Cl)cc1` (centres undefined) here?
**A.** 8.23%

**Q.** What about the inhibition at 40 µM (A549 [1]) of the same compound?
**A.** 1.72%

**Q.** And the inhibition at 40 µM (HL-60)?
**A.** 15.6%

**Q.** And the inhibition at 40 µM (SMMC-7721)?
**A.** 15.2%

**Q.** What about the inhibition at 40 µM (SW480) of the same compound?
**A.** 15.3%

**Q.** How did the inhibition at 40 µM (MCF7) turn out when `CCOC(=O)C1(Cc2ccccc2)C(=O)N(CCCN(C)C)c2ccccc21` (centres undefined) was run?
**A.** 28.9%

**Q.** And the inhibition at 40 µM (A549 [1])?
**A.** 7.46%

**Q.** What about the inhibition at 40 µM (HL-60) of the same compound?
**A.** 5.85%

**Q.** What about the inhibition at 40 µM (SMMC-7721) of the same compound?
**A.** 12.8%

**Q.** And the inhibition at 40 µM (SW480)?
**A.** 3.98%

**Q.** How did the inhibition at 40 µM (MCF7) turn out when `COc1cc(C(C)=O)ccc1OC(=O)C(C)N1C(=O)c2ccccc2C1=O` (centres undefined) was run?
**A.** 15.3%

**Q.** And the inhibition at 40 µM (A549 [1])?
**A.** 6.5%

**Q.** And the inhibition at 40 µM (HL-60)?
**A.** 8.86%

**Q.** And the inhibition at 40 µM (SMMC-7721)?
**A.** 6.87%

**Q.** What about the inhibition at 40 µM (SW480) of the same compound?
**A.** 4.18%

**Q.** How did the inhibition at 40 µM (MCF7) turn out when `Cc1cccc(NC(=O)CN2C(=O)C(=O)c3ccccc32)c1` was run?
**A.** 45.2%

**Q.** And the inhibition at 40 µM (A549 [1])?
**A.** 7.75%

**Q.** What about the inhibition at 40 µM (HL-60) of the same compound?
**A.** 25.1%

**Q.** What about the inhibition at 40 µM (SMMC-7721) of the same compound?
**A.** 40.2%

**Q.** And the inhibition at 40 µM (SW480)?
**A.** 31.8%

**Q.** Which Activity (A549 [2]) does the source give for `COc1cccc2c1C(=O)c1c(O)c3c(c(O)c1C2=O)C[C@@](O)(C(=O)CO)C[C@@H]3O[C@H]1C[C@H](N)[C@H](O)[C@H](C)O1` [DOXORUBICIN] here?
**A.** 30.8%

**Q.** What about the Activity (A549 [3]) of the same compound?
**A.** 49.8%

**Q.** What about the Activity (A549 [4]) of the same compound?
**A.** 0.965%

**Q.** What about the Activity (A549 [5]) of the same compound?
**A.** 18.4%

**Q.** With `CC1=CC(C2CC(=O)N(c3ccccc3C)C2=O)CC2C(=O)N(c3ccccc3C)C(=O)C12` (centres undefined) as the compound, how does the inhibition at 40 µM (MCF7) read?
**A.** 12.3%

**Q.** What about the inhibition at 40 µM (A549 [1]) of the same compound?
**A.** 4.1%

**Q.** And the inhibition at 40 µM (HL-60)?
**A.** 10.7%

**Q.** What about the inhibition at 40 µM (SMMC-7721) of the same compound?
**A.** 9.68%

**Q.** And the inhibition at 40 µM (SW480)?
**A.** 6.73%
